Experimental data reported in patent US20150087673A1, “METHODS FOR USING AND BIOMARKERS FOR AMPK-ACTIVATING COMPOUNDS” (RIGEL PHARMACEUTICALS, INC., priority 2013, published 2015).

system: AMPK; assay: AMPK activation assay (enzyme-linked immunosorbent assay); type: cell-based
In short: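 Compounds were tested for their capacity to activate the kinase using standard, commercially available kit reagents and procedures.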

SMILES	EC50
O=C(Nc1ccc(-c2cc[nH]c2)cc1)c1ccc(C(=O)N2CCN(Cc3ccc(F)cc3)CC2)cn1 [Compound 39, 5-(4-(4-fluorobenzyl)piperazine-1-carbonyl)-N-(4-(1H-pyrrol-3-yl)phenyl)picolinamide]	1000 to 5000 nM
N#Cc1ccc(CN2CCC(NC(=O)c3ccc(C(=O)N4CC[C@@H](Oc5ccc(F)cc5)C4)cn3)CC2)cc1 [Compound 278, (R)-N-(1-(4-cyanobenzyl)piperidin-4-yl)-5-(3-(4-fluorophenoxy)pyrrolidine-1-carbonyl)picolinamide]	< 500 nM
N#Cc1ccc(CN2CCC(NC(=O)c3ccc(C(=O)N4CCC(Oc5ccc(C#N)c(Cl)c5)CC4)cn3)CC2)cc1 [Compound 156, 5-(4-(3-chloro-4-cyanophenoxy)piperidine-1-carbonyl)-N-(1-(4-cyanobenzyl)piperidin-4-yl)picolinamide]	< 500 nM
N#Cc1ccc(-c2nnc3n2CCN(C(=O)c2ccc(C(=O)NC4CCN(Cc5cc(F)cc(F)c5)CC4)nc2)C3)cc1 [Compound 314, 5-(3-(4-cyanophenyl)-5,6,7,8-tetrahydro-[1,2,4]triazolo[4,3-a]pyrazine-7-carbonyl)-N-(1-(3,5-difluorobenzyl)piperidin-4-yl)picolinamide]	> 10000 nM
COc1ccc(C(=O)C2CCN(C(=O)c3ccc(C(=O)N[C@H]4CC[C@@H](Oc5ccc(C(F)(F)F)cc5)CC4)nc3)CC2)cc1 [Compound 192, 5-(4-(4-methoxybenzoyl)piperidine-1-carbonyl)-N-((cis)-4-(4-(trifluoromethyl)phenoxy)cyclohexyl) picolinamide]	< 500 nM
N#Cc1ccc(CNC(=O)c2cccc(-c3ccc(C(=O)N4CCN(Cc5ccc(F)cc5)CC4)cn3)c2)cc1 [Compound 42, (6-(3-(4-cyanobenzylcarbamoyl)phenyl)pyridin-3yl)(4-(4-fluorobenzyl)piperazin-1-yl)methanone]	1000 to 5000 nM
COc1ccc(CN2CCC(NC(=O)c3ccc(C(=O)N4CCC(C(=O)c5ccc(OC)cc5)CC4)nc3)CC2)cc1 [Compound 318, 6-(4-(4-methoxybenzoyl)piperidine-1-carbonyl)-N-(1-(4-methoxybenzyl)piperidin-4-yl) nicotinamide]	< 500 nM
Cc1cc(CN2CCC(NC(=O)c3ccc(C(=O)N4CCN(Cc5ccc(F)cc5)CC4)cn3)CC2)ccc1F [Compound 50, 5-(4-(4-fluorobenzyl)piperazine-1-carbonyl)-N-(1-(4-fluoro-3-methylbenzyl)piperidin-4-yl)picolinamide]	< 500 nM
O=C(c1ccc(Nc2ccc(Cc3ccccc3)cc2)nc1)N1CCN(Cc2ccc(F)cc2)CC1 [Compound 30]	1000 to 5000 nM
N#Cc1ccc(CN2CCc3ccc(NC(=O)c4ccc(C(=O)NCc5ccc(F)cc5)cn4)cc3C2)cc1 [Compound 144, N2-(2-(4-cyanobenzyl)-1,2,3,4-tetrahydroisoquinolin-7-yl)-N5-(4-fluorobenzyl)pyridine-2,5-dicarboxamide]	500 to 1000 nM
CCOC(=O)c1ccc(OC2CCN(C(=O)c3ccc(C(=O)NC4CCN(Cc5ccc(C#N)cc5)CC4)nc3)CC2)cc1 [Compound 284, ethyl 4-(1-(6-(1-(4-cyanobenzyl)piperidin-4-ylcarbamoyl)nicotinoyl)piperidin-4-yloxy)benzoate]	< 500 nM
N#Cc1ccc(CN2CCC(Nc3ccc(C(=O)N4CCN(Cc5ccc(F)cc5)CC4)cn3)CC2)cc1 [Compound 36, (6-(4-(cyanobenzyl)piperidin-4-ylamino)pyridin-3-yl)(4-(4-fluorobenzyl)piperazin-1-yl)methanone]	500 to 1000 nM
N#Cc1ccc(CN2CCC(NC(=O)c3cnc(C(=O)N4CCC(C(=O)c5ccc(N6CCCC6)cc5)CC4)cn3)CC2)cc1 [Compound 219, N-(1-(4-cyanobenzyl)piperidin-4-yl)-5-(4-(4-(pyrrolidin-1-yl)benzoyl)piperidine-1-carbonyl)pyrazine-2-carboxamide]	< 500 nM
N#Cc1ccc(CN2CCC(NC(=O)c3ccc(C(=O)N4CCN(Cc5cc(F)cc(F)c5)CC4)cn3)CC2)cc1 [Compound 140, N-(1-(4-cyanobenzyl)piperidin-4-yl)-5-(4-(3,5-difluorobenzyl)piperazine-1-carbonyl)picolinamide]	< 500 nM
N#Cc1ccc(Oc2ccc(NC(=O)c3ccc(C(=O)N4CCN(Cc5ccc(F)cc5)CC4)cn3)cn2)cc1 [Compound 63, 5-(4-(4-fluorobenzyl)piperazine-1-carbonyl)-(6-(4-cyanophenoxy)pyridin-3-yl)picolinamide]	< 500 nM
N#Cc1ccc(CN2CCC(NC(=O)c3ccc(C(=O)N4CCN(C(=O)c5ccc(C(=O)NC6CCN(Cc7ccc(C#N)cc7)CC6)nc5)CC4)cn3)CC2)cc1 [Compound 75, 5,5′-(piperazine-1,4-diylbis(oxomethylene))bis(N-(1-(4-cyanobenzyl)piperidin-4-yl)picolinamide)]	1000 to 5000 nM
COc1ccc(C(=O)C2CCN(C(=O)c3cnc(C(=O)NC4CCN(Cc5ccc(C#N)cc5)CC4)cn3)CC2)cc1 [Compound 211, N-(1-(4-cyanobenzyl)piperidin-4-yl)-5-(4-(4-methoxybenzoyl)piperidine-1-carbonyl)pyrazine-2-carboxamide]	< 500 nM

More lines, now with the values ahead:

EC50	SMILES
1000 to 5000 nM	CS(=O)(=O)c1ccc(N2CCC(NC(=O)c3ccc(C(=O)N4CCC(Oc5ccc(C#N)cc5)CC4)nc3)CC2)cc1 [Compound 420, 6-(4-(4-cyanophenoxy)piperidine-1-carbonyl)-N-(1-(4-(methylsulfonyl)phenyl)piperidin-4-yl)nicotinamide]
< 500 nM	COc1ccc(C(=O)C2CCN(C(=O)c3ccc(C(=O)N[C@@H]4CCN(Cc5ccc(C#N)cc5)C[C@H]4F)cn3)CC2)cc1 (relative stereo) [Compound 349, N-((trans)-1-(4-cyanobenzyl)-3-fluoropiperidin-4-yl)-6-(4-(4-methoxybenzoyl)piperidine-1-carbonyl)nicotinamide]
< 500 nM	CC(=O)c1ccc(Oc2ccc(NC(=O)c3ccc(C(=O)N4CCN(c5ccc(S(=O)(=O)C(C)C)cc5)CC4)nc3)cn2)cc1 [Compound 489, N-(6-(4-acetylphenoxy)pyridin-3-yl)-6-(4-(4-(isopropylsulfonyl)phenyl)piperazine-1-carbonyl)nicotinamide]
1000 to 5000 nM	N#Cc1ccc(OC2CCN(C(=O)c3ccc(C(=O)NC4CCN(c5ccc(F)cc5)CC4)cn3)CC2)cc1 [Compound 422, 6-(4-(4-cyanophenoxy)piperidine-1-carbonyl)-N-(1-(4-fluorophenyl)piperidin-4-yl)nicotinamide]
500 to 1000 nM	COc1ccc(OC2CCN(C(=O)c3ccc(C(=O)NC4CCN(Cc5ccc(C#N)cc5)CC4)cn3)CC2)c(N)c1 [Compound 384, 6-(4-(2-amino-4-methoxyphenoxy)piperidine-1-carbonyl)-N-(1-(4-cyanobenzyl)piperidin-4-yl)nicotinamide]
< 500 nM	N#Cc1ccc(CN2CCC(NC(=O)c3ccc(C(=O)N4CCC(C(=O)c5ccc(C#N)cc5)CC4)cn3)CC2)cc1 [Compound 369, 5-(4-(4-cyanobenzoyl)piperidine-1-carbonyl)-N-(1-(4-cyanobenzyl)piperidin-4-yl)picolinamide]
< 500 nM	CS(=O)(=O)c1ccc(OC2CCN(C(=O)c3ccc(C(=O)NC4CCN(Cc5ccc(C#N)cc5)CC4)nn3)CC2)cc1 [Compound 399, N-(1-(4-cyanobenzyl)piperidin-4-yl)-6-(4-(4-(methylsulfonyl)phenoxy)piperidine-1-carbonyl)pyridazine-3-carboxamide]
< 500 nM	O=C(Nc1ccc(Oc2ccc(F)cc2)nc1)c1ccc(C(=O)N2CCC(C(=O)c3ccc(N4CCCC4)cc3)CC2)nc1 [Compound 382, N-(6-(4-fluorophenoxy)pyridin-3-yl)-6-(4-(4-(pyrrolidin-1-yl)benzoyl)piperidine-1-carbonyl)nicotinamide]
< 500 nM	CC(=O)Nc1ccc(OC2CCN(C(=O)c3ccc(C(=O)NC4CCN(Cc5ccc(C#N)cc5)CC4)cn3)CC2)cc1 [Compound 366, 6-(4-(4-acetamidophenoxy)piperidine-1-carbonyl)-N-(1-(4-cyanobenzyl)piperidin-4-yl)nicotinamide]
1000 to 5000 nM	COc1ccc(C(=O)C2CCN(C(=O)c3ccc(C(=O)N[C@@H]4CCN(Cc5csc(C)n5)C[C@@H]4F)cn3)CC2)cc1 [Compound 427, N-((3S,4R)-3-fluoro-1-((2-methylthiazol-4-yl)methyl)piperidin-4-yl)-6-(4-(4-methoxybenzoyl)piperidine-1-carbonyl)nicotinamide]
< 500 nM	N#Cc1ccc(Oc2ccc(NC(=O)c3ccc(C(=O)N4CCC(C(=O)c5ccc(F)cc5F)CC4)nc3)cn2)cc1 [Compound 463, N-(6-(4-cyanophenoxy)pyridin-3-yl)-6-(4-(2,4-difluorobenzoyl)piperidine-1-carbonyl)nicotinamide]
< 500 nM	N#Cc1ccc(OC2CCN(C(=O)c3ccc(C(=O)NC4CCN(Cc5cc(F)cc(F)c5)CC4)cn3)CC2)cc1 [Compound 322, 6-(4-(4-cyanophenoxy)piperidine-1-carbonyl)-N-(1-(3,5-difluorobenzyl)piperidin-4-yl)nicotinamide]
< 500 nM	N#Cc1ccc(OC2CCN(C(=O)c3ccc(C(=O)Nc4ccc(Oc5ccc(F)cc5)nc4)cn3)CC2)cc1 [Compound 326, 6-(4-(4-cyanophenoxy)piperidine-1-carbonyl)-N-(6-(4-fluorophenoxy)pyridin-3-yl)nicotinamide]
< 500 nM	CC(=O)c1ccc(Oc2ccc(NC(=O)c3ccc(C(=O)N4CCN(Cc5ccc(F)cc5)CC4)nc3)cn2)cc1 [Compound 477, N-(6-(4-acetylphenoxy)pyridin-3-yl)-6-(4-(4-fluorobenzyl)piperazine-1-carbonyl)nicotinamide]
< 500 nM	COc1ccc(C(=O)C2CCN(C(=O)c3ccc(C(=O)Nc4ccc(Oc5ccc(C#N)cc5)cn4)cn3)CC2)cc1 [Compound 468, N-(5-(4-cyanophenoxy)pyridin-2-yl)-6-(4-(4-methoxybenzoyl)piperidine-1-carbonyl)nicotinamide]
< 500 nM	COc1ccc(C(=O)C2CCN(C(=O)c3ccc(C(=O)Nc4ccc(Oc5ccc(F)cc5)nc4)cn3)CC2)cc1 [Compound 325, N-(6-(4-fluorophenoxy)pyridin-3-yl)-6-(4-(4-methoxybenzoyl)piperidine-1-carbonyl)nicotinamide]
